The subject of experiment [1] is KG-1 cells (FGFR1-fusion). Description: KG-1 cancer cell line cell viability assay (CellTiter-Glo 2.0). The experiment is classed as cell-based. Particulars: Homo sapiens, 72 hours, Cell Titer Glo 2.0. The source says: (§1) Experimental Purpose: To detect the change of intracellular ATP by Cell Titer-Glo® and to evaluate the inhibitory effect of the compounds on cancer cell lines by determining the in vitro IC50 value of the compounds.
(§2) Cell Titer-Glo® 2.0 Luminescent cell viability assay reagent was purchased from Promega (Madison, WI). RT112/84 and KG-1 cell lines were purchased from American Type Culture Collection (Manassas, VA). UM-UC-14 cell line was purchased from Sigma (St. Louis, MO). RT112/84, UM-UC-14, and KG-1 cells were cultured in RPMI1640 media supplemented with 10% fetal bovine serum. Cultures were maintained at 37° C. in a humidified atmosphere of 5% C02 and 95% air.
(§3) Cell Viability Assay Procedure: Cells were plated in 96-well clear bottom/white plates (Corning #3903) at 10,000 cells/well in 100 μl of media, incubated overnight. The next day, test compound DMSO stock solutions were made at 10 mM and 2 μM final concentration. Compounds were then added to cells in a 9-dose, 10-fold dilution series starting at 30 μM with an HP 300e Digital Dispenser (each dose was applied in triplicate). DMSO was backfilled to each well up to 301 nL total volume of test compound+DMSO, and a total of 301 nL DMSO was added to a control/no test compound well in triplicate. The cells in cell culture plates were incubated with the compounds at 37° C. and 5% C02 for 72 hours. Then 50 μl of Cell Titer Glo 2.0 reagent was added to each well of the cell culture plates. The contents were covered from light and mixed on an orbital shaker at room temperature for 10 min. Luminescence was recorded by a Synergy H1 Microplate Reader (Biotek, Winooski, VT). Cells were assessed as a percentage of DMSO only treated control cells. Curves were plotted and IC50 values were calculated using the GraphPad Prism 8 program based on a sigmoidal dose-response equation (4 parameter).
Background: ATP-based viability assays read luminescence as a measure of living cells.

In a further experiment the target is FGFR1 (Homo sapiens (Human), UniProt P11362). Put plainly: Kinase assay, binding constants (Kd), kinase-tagged T7 phage, qPCR. In outline: (§4)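 Using T7 phage lysates from BL21-derived E. coli, compounds at 0.9% final DMSO competed for kinase binding to ligand-bearing magnetic beads. After elution, qPCR measured remaining kinase, and Kds were fitted by non-linear least squares with the Hill slope fixed at −1.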
In general terms: Real-time PCR tracks product formation cycle by cycle.

The target in the next experiment is FGFR3 (Homo sapiens (Human), UniProt P22607). The experiment is described as above. In outline: as §4
For a further experiment, the target named is FGFR2 (Homo sapiens (Human), UniProt P21802). Described as above. The gist of the method: as §4
A further experiment deals with FGFR3 (V555M) (Homo sapiens (Human), UniProt P22607, V555M). The experiment is described as above. Particulars: V555M mutant. In outline:
as §4

The target in the next experiment is FGFR4 (Homo sapiens (Human), UniProt P22455). Described as above. The gist of the method: as §4
For a further experiment, the target named is FGFR1-BCR Ba/F3 cells (Homo sapiens, UniProt P11362). Put plainly: Ba/F3 cell viability assay (CellTiter-Glo 2.0), FGFR1-BCR Ba/F3. The experiment is classed as cell-based. Particulars: read-out: Ba/F3 Cells FGFR1 (IC50 nM), 48 hours, Cell Titer Glo 2.0. The gist of the method: (§5)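 Viability read as ATP luminescence (CellTiter-Glo 2.0) after 48 h compound exposure, normalized to DMSO-treated cells and fitted with a 4-parameter curve for IC50. Cells: Ba/F3 dependent on FGFR1-BCR or FGFR3-BAIAP2L1 fusion kinase; top dose 30 μM, 10-fold steps, 9 doses in triplicate.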

In experiment [2] the target is FGFR3-BAIAP2L1 Ba/F3 cells (Homo sapiens, UniProt P22607). Put plainly: Ba/F3 cell viability assay (CellTiter-Glo 2.0), FGFR3-BAIAP2L1 Ba/F3. The experiment is classed as cell-based. Particulars: for Ba/F3 FGFR1/FGFR3 Selectivity: FGFR3 > FGFR1 selectivity ratio in Ba/F3 FGFR fusion cell based assays; for IC50: read-out: Ba/F3 Cells FGFR3 (IC50 nM), FGFR3-BAIAP2L1 Ba/F3 cells, 48 hours, Cell Titer Glo 2.0. The gist of the method: as §5

Experiment [3] relates to RT112/84 cells (FGFR3-fusion). Description: RT112/84 cancer cell line cell viability assay (CellTiter-Glo 2.0). Particulars: Homo sapiens, 72 hours, Cell Titer Glo 2.0. The experiment is classed as cell-based.
From the text: as §1, §2, §3

Like-named read-outs stand apart in the source and are kept apart here.

We go through ten compounds from patent publication US20240109865A1, “INDAZOLE COMPOUNDS AS KINASE INHIBITORS” (TYRA BIOSCIENCES, INC., priority 2020, published 2024).

Broadly, the Kd is the constant that tells how readily two partners part at equilibrium. High values mean lower affinity, low ones higher affinity.

Chain of FGFR3 (V555M) (P22607 23-806 V555M): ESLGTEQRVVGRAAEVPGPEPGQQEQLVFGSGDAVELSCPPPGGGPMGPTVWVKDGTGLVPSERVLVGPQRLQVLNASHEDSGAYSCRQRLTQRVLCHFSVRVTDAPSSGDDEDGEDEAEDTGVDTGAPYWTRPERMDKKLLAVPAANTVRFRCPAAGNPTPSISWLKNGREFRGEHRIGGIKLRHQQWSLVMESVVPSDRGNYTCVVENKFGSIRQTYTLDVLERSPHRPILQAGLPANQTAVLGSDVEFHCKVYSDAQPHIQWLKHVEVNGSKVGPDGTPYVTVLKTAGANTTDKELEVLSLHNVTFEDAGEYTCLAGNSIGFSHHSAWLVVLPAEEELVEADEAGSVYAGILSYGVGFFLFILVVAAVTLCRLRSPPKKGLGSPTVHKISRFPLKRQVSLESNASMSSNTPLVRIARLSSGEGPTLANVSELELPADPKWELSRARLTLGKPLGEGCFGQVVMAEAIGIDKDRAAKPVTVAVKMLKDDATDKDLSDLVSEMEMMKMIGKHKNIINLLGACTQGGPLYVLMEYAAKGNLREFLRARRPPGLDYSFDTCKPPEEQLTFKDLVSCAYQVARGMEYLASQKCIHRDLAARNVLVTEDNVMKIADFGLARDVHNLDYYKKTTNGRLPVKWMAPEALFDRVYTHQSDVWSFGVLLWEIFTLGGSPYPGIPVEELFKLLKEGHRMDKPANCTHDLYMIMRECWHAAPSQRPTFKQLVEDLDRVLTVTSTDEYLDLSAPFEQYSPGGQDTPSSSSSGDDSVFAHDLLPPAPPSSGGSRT
Chain of FGFR1-BCR Ba/F3 cells (P11362 22-822 limits assumed, change not shown): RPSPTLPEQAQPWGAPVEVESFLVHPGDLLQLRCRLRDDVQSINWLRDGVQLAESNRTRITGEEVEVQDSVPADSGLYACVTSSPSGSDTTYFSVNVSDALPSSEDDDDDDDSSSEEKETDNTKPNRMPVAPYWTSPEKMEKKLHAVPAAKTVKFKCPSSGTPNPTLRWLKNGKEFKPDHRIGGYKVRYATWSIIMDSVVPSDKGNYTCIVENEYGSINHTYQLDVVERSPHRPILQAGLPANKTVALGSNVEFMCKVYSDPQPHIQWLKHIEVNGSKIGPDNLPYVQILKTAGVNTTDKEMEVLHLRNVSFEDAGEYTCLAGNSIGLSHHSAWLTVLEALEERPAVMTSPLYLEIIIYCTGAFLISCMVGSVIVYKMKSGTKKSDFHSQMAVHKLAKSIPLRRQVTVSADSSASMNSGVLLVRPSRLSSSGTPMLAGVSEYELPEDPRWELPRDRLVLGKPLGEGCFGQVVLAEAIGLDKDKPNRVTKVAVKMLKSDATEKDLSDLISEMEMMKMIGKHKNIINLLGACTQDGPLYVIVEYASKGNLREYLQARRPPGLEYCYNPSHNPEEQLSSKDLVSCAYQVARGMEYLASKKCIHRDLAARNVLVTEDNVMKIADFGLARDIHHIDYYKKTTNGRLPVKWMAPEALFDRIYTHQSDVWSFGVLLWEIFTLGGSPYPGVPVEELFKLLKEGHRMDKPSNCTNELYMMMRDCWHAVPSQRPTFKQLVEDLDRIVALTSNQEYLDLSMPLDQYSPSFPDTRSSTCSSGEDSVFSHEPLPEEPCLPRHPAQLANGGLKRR
Chain of FGFR1 (P11362 22-822): as the sequence (P11362 22-822 limits assumed, change not shown) above
Chain of FGFR4 (P22455 22-802): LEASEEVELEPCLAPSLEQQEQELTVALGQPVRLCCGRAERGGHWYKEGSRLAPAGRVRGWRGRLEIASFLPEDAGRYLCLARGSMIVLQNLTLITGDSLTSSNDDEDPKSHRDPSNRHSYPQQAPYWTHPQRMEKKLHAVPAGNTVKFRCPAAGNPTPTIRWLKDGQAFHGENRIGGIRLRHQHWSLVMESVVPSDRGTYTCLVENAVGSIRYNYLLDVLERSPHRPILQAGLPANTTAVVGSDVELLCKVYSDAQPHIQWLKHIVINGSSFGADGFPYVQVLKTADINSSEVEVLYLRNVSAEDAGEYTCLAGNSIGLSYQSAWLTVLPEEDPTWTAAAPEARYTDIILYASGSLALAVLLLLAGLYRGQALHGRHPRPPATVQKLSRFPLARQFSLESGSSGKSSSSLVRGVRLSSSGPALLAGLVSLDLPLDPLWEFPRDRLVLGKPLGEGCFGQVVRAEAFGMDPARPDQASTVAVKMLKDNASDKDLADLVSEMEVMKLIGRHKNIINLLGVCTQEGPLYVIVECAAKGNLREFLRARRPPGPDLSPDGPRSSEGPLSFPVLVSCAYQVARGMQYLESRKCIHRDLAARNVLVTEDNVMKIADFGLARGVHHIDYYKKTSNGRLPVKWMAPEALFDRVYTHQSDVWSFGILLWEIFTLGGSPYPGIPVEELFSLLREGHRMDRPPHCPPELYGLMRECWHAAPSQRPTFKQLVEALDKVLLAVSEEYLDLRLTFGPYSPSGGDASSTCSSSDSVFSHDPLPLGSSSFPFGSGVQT
Chain of FGFR2 (P21802 22-821): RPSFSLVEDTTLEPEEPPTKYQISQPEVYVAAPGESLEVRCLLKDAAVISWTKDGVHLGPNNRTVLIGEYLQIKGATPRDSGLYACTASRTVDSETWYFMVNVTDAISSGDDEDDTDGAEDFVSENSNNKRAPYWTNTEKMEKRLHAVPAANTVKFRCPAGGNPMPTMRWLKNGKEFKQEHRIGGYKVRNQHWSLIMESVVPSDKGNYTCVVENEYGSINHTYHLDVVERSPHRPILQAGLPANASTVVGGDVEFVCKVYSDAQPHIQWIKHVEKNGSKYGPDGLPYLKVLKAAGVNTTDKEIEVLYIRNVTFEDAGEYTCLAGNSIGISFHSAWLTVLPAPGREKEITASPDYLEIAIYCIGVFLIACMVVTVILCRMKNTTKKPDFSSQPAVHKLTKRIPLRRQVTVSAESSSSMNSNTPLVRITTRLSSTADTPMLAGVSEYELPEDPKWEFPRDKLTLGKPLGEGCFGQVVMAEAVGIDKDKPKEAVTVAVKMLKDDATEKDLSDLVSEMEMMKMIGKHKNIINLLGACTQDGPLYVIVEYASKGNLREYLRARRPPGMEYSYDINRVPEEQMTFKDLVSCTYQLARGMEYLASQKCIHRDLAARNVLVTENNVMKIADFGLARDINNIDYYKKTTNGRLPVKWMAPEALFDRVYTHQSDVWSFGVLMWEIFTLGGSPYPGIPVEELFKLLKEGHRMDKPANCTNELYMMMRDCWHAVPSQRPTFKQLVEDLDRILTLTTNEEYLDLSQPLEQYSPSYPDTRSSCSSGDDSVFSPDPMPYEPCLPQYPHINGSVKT
Chain of FGFR3-BAIAP2L1 Ba/F3 cells (P22607 23-806 limits assumed, change not shown): as the sequence (P22607 23-806 V555M) above, with M533V counted along it
Chain of FGFR3 (P22607 23-806): as the sequence (P22607 23-806 V555M) above, with M533V counted along it

For the compound `C[C@@H](Oc1ccc2[nH]nc(-c3cnn([C@H]4CCNC4)c3)c2c1)c1c(Cl)cncc1Cl` [Example 88, 5-[(1R)-1-(3,5-dichloro-4-pyridyl)ethoxy]-3-[1-[(3S)-pyrrolidin-3-yl]pyrazol-4-yl]-1H-indazole], the IC50 in [1] was in the range of 100 to 300 nM; at FGFR1-BCR Ba/F3 cells, 100 to 300 nM; in experiment [2], 1 to 20 nM; in experiment [3], 20 to 100 nM. In addition, the Kd at FGFR1 is 1 to 20 nM; on FGFR3, 1 to 20 nM; at FGFR2, 1 to 20 nM; at FGFR3 (V555M), 1 to 20 nM; on FGFR4, 20 to 100 nM. In addition, in experiment [2], the “Ba/F3 FGFR1/FGFR3 Selectivity” value came to 20.

Take `Cc1ncc(Cl)c([C@@H](C)Oc2ccc3[nH]nc(-c4cnn(C5CCN(C(C)C)CC5)c4)c3c2)c1Cl` [Example 93, 5-[(1R)-1-(3,5-dichloro-2-methyl-4-pyridyl)ethoxy]-3-[1-(1-isopropyl-4-piperidyl)pyrazol-4-yl]-1H-indazole]: the IC50 in experiment [1] was 100 to 300 nM; on FGFR1-BCR Ba/F3 cells, 100 to 300 nM; in experiment [2] it was 20 to 100 nM; in experiment [3], 1 to 20 nM. The Kd lay within 1 to 20 nM on FGFR1; 1 to 20 nM at FGFR3; 1 to 20 nM on FGFR2; 1 to 20 nM on FGFR3 (V555M); 20 to 100 nM at FGFR4. In experiment [2], the “Ba/F3 FGFR1/FGFR3 Selectivity” value is given as 11.

Take `Cc1ncc(Cl)c([C@@H](C)Oc2ccc3[nH]nc(-c4cnn(C5CCN(C6COC6)CC5)c4)c3c2)c1Cl` [Example 94, 5-[(1R)-1-(3,5-dichloro-2-methyl-4-pyridyl)ethoxy]-3-[1-[1-(oxetan-3-yl)-4-piperidyl]pyrazol-4-yl]-1H-indazole]: the IC50 in experiment [1] was 100 to 300 nM; on FGFR1-BCR Ba/F3 cells it was 100 to 300 nM; in experiment [2] (given as a number) it was 15 nM; in [3], 1 to 20 nM. The dissociation constant (Kd) on FGFR1 lay within 20 to 100 nM; on FGFR3, 1 to 20 nM; at FGFR2, 1 to 20 nM; on FGFR3 (V555M), 1 to 20 nM; at FGFR4, 20 to 100 nM. Further, the “Ba/F3 FGFR1/FGFR3 Selectivity” value in [2] is reported as 11.

Consider `Cc1ncc(Cl)c([C@@H](C)Oc2ccc3[nH]nc(-c4cnn(C5CCN(C6CCC6)CC5)c4)c3c2)c1Cl` [Example 95, 3-[1-(1-cyclobutyl-4-piperidyl)pyrazol-4-yl]-5-[(1R)-1-(3,5-dichloro-2-methyl-4-pyridyl)ethoxy]-1H-indazole], for which the IC50 was 100 to 300 nM in experiment [1], above 300 nM on FGFR1-BCR Ba/F3 cells, 20 to 100 nM in experiment [2] and 20 to 100 nM in [3]. In addition, the Kd was in the range of 1 to 20 nM on FGFR1; 1 to 20 nM on FGFR3; 1 to 20 nM at FGFR2; 1 to 20 nM at FGFR3 (V555M); 20 to 100 nM on FGFR4. Also, in experiment [2], the “Ba/F3 FGFR1/FGFR3 Selectivity” value turned out to be 14.

For the compound `C[C@@H](Oc1ccc2[nH]nc(-c3ccc(N4CC5(CCN5C)C4)nc3)c2c1)c1c(Cl)cncc1Cl` [Example 96, 5-[(1R)-1-(3,5-dichloro-4-pyridyl)ethoxy]-3-[6-(1-methyl-1,6-diazaspiro[3.3]heptan-6-yl)-3-pyridyl]-1H-indazole], the IC50 in [1] lay in the range of 20 to 100 nM; on FGFR1-BCR Ba/F3 cells, 20 to 100 nM; in experiment [2], 1 to 20 nM; in experiment [3] it was 1 to 20 nM. Besides, the Kd on FGFR1, on FGFR3, at FGFR2, at FGFR3 (V555M) and at FGFR4 was 1 to 20 nM throughout. Also, the “Ba/F3 FGFR1/FGFR3 Selectivity” value in experiment [2] was 13.

Regarding `C[C@@H](Oc1ccc2[nH]nc(-c3ccc(N4CCC5(CC4)CN(C)CC(=O)N5)nc3)c2c1)c1c(Cl)cncc1Cl` [Example 97, 9-[5-[5-[(1R)-1-(3,5-dichloro-4-pyridyl)ethoxy]-1H-indazol-3-yl]-2-pyridyl]-4-methyl-1,4,9-triazaspiro[5.5]undecan-2-one], the IC50 lay within 20 to 100 nM in [1], 20 to 100 nM at FGFR1-BCR Ba/F3 cells, 1 to 20 nM in [2] and 1 to 20 nM in experiment [3]. Also, the Kd at FGFR1, on FGFR3, at FGFR2, on FGFR3 (V555M) and on FGFR4 was 1 to 20 nM throughout. For the same compound, the “Ba/F3 FGFR1/FGFR3 Selectivity” value in [2] came to 15.

With `C[C@@H](Oc1ccc2[nH]nc(-c3ccc(N4CCC5(CC4)CN(C)CC(=O)N5C)nc3)c2c1)c1c(Cl)cncc1Cl` [Example 98, 9-[5-[5-[(1R)-1-(3,5-dichloro-4-pyridyl)ethoxy]-1H-indazol-3-yl]-2-pyridyl]-1,4-dimethyl-1,4,9-triazaspiro[5.5]undecan-2-one], the IC50 in [1] lay in the range of 20 to 100 nM; at FGFR1-BCR Ba/F3 cells it was 20 to 100 nM; in experiment [2], 1 to 20 nM; in experiment [3] it was 1 to 20 nM. The dissociation constant Kd on FGFR1, at FGFR3, at FGFR2, on FGFR3 (V555M) and at FGFR4 was 1 to 20 nM in each case. Moreover, the “Ba/F3 FGFR1/FGFR3 Selectivity” value in experiment [2] came to 24.

With `C[C@@H](Oc1ccc2[nH]nc(-c3cnn(C4CCOCC4)c3)c2c1)c1c(Cl)cncc1Cl` [Example 106, 5-[(1R)-1-(3,5-dichloro-4-pyridyl)ethoxy]-3-(1-tetrahydropyran-4-ylpyrazol-4-yl)-1H-indazole], the IC50 in experiment [1] lay within 100 to 300 nM; on FGFR1-BCR Ba/F3 cells it was 100 to 300 nM; in experiment [2], 1 to 20 nM; in [3], 1 to 20 nM. For the same compound, the Kd on FGFR1, on FGFR3, at FGFR2, on FGFR3 (V555M) and on FGFR4 was 1 to 20 nM each time. Moreover, the “Ba/F3 FGFR1/FGFR3 Selectivity” value in experiment [2] is given as 11.

As to `Cc1ncc(Cl)c([C@@H](C)Oc2ccc3[nH]nc(-c4ccc(N5CC6(C5)CN(S(C)(=O)=O)C6)nc4)c3c2)c1Cl` [Example 107, 5-[(1R)-1-(3,5-dichloro-2-methyl-4-pyridyl)ethoxy]-3-[6-(2-methylsulfonyl-2,6-diazaspiro[3.3]heptan-6-yl)-3-pyridyl]-1H-indazole], the IC50 in experiment [1] was in the range of 100 to 300 nM; at FGFR1-BCR Ba/F3 cells, 100 to 300 nM; in [2] it was 1 to 20 nM; in experiment [3] it was 20 to 100 nM. Further, the Kd at FGFR1 lay in the range of 20 to 100 nM; at FGFR3 it was 1 to 20 nM; at FGFR2, 20 to 100 nM; on FGFR3 (V555M) it was 1 to 20 nM; on FGFR4, 1 to 20 nM. Moreover, the “Ba/F3 FGFR1/FGFR3 Selectivity” value in experiment [2] was determined as 16.

For the compound `CC(Oc1ccc2[nH]nc(-c3ccc(N4CC5(C4)CN(S(C)(=O)=O)C5)nc3)c2c1)c1c(Cl)ccnc1Cl` (stereo not shown) [Example 109, 5-[1-(2,4-dichloro-3-pyridyl)ethoxy]-3-[6-(2-methylsulfonyl-2,6-diazaspiro[3.3]heptan-6-yl)-3-pyridyl]-1H-indazole], the IC50 lay within 100 to 300 nM in experiment [1], 100 to 300 nM at FGFR1-BCR Ba/F3 cells, 1 to 20 nM in experiment [2] and 20 to 100 nM in experiment [3]. Besides, the Kd at FGFR1 was in the range of 20 to 100 nM; at FGFR3, 1 to 20 nM; on FGFR2, 1 to 20 nM; on FGFR3 (V555M) it was 1 to 20 nM; on FGFR4, 1 to 20 nM. Besides, the “Ba/F3 FGFR1/FGFR3 Selectivity” value in [2] is 12.
